Data published in patent US20140294729A1, “METHODS FOR IDENTIFICATION AND USE OF AGENTS TARGETING CANCER STEM CELLS” (Whitehead Institute for Biomedical Research, priority 2008, published 2014).
“Also recorded” adds a separate entry of the source.

What was measured:
HMLE-Twist cells [1] = test: Co-culture of GFP-expressing HMLE cells and unlabelled HMLE-Twist cells, FACS for GFP positivity; type: cell-based, human; conditions: FIG. 4C
Experimental: (§1) FIG. 4A depicts dose response curves of HMLEshCntrl (A, light gray curve) and HMLEshEcad (A, dark gray curve) cells treated with the 8 compounds identified during the initial screen. 1000 cells of each line were seeded onto 384 well plates and treated with 8 different concentrations of compounds within a 2.5 log range. The cell viability after 3 day treatment was measured by Cell-Titer-Glo. […] FIG. 4B depicts dose response curves of HMLEshCntrl (curve with square data points) and HMLE-Twist (curve with triangular data points) cells treated with the same compounds as in (A). Note that selectivity of Salinomycin, Abamectin, Etoposide and Nigericin (Top, Left-to-Right) is retained even though a different method of EMT induction is used. […] 1 Day after seeding DMSO, Salinomycin (1.25 or 5 μM) or Abamectin (0.25 or 1.25 μM) was added at the indicated concentration. As the GFP vector contains a Blasticidin resistance gene, we used Blasticidin treatment as a positive control for the expansion of GFP-expressing control HMLE cells. After 3 day incubation the mix population of cells were analyzed by flow cytometry and the percentage of GFP-positive cells were determined. […] FIG. 4D depicts dose response curves of transformed HMLERshCntrl (light gray line) and HMLERshEcad (dark gray lines) cells treated with Salinomycin and Abamectin. Dotted line denotes the 50% fraction surviving.
To examine the effects of salinomycin and abamectin treatment on heterogeneous populations of epithelial cells that have and epithelial cells that have not undergone EMT, we co-mixed GFP-labeled HMLE cells with unlabeled HMLE-Twist cells, treating the resulting co-cultures with compounds. As a positive control for this experiment we treated co-cultures with blasticidin, which selects for the differentiated HMLE-GFP cells, which harbor a blasticidin-resistance gene.
For the mix experiments, unlabelled and GFP-labeled cells were mixed at the indicated ratios and seeded onto 6-well plates. Triplicate wells were then treated with dmso or the compounds (paclitaxel, salinomycin, abamectin and blasticidin) for 48 hrs. The cells were washed with PBS, trypsinized and analyzed by FACS for GFP positivity.

[2] = system: breast CSC and progenitor genes; test: Gene set enrichment analysis of stem-like cell gene sets after treatment; type: cell-based; conditions: in comparison with paclitaxel treatment, FIG. 16
From the text: (§2) Gene set enrichment analysis was used to determine whether three previously reported sets of genes associated with stem-like cells were repressed in response to salinomycin in comparison with paclitaxel treatment. Graphed are the Kolmogorov-Smimov enrichment scores versus Gene ranks based on differential expression. P-values reflecting statistical significance for each analysis are shown.
as §2, with “Kolmogorov-Smirnov” for “Kolmogorov-Smimov”, “shown. The three previously reported gene signatures are: CD44+CD24− IGS (Liu et al., 2007), CD44+CD24− (Shipitsin et al., 2007) and Mammosphere (Dontu et al., 2003). (FIG. 16.)” for “shown.”

HMLE-Twist cells [3] = test: Dose-response viability of HMLEshCntrl vs HMLE-Twist cells; type: cell-based, human; conditions: EMT induced by Twist, FIG. 4B
Experimental: as §1
(§3) Individual compounds were purchased from Sigma and dissolved in DMSO with the exception of nigericin which was dissolved in 100% ethanol. Activity of the compounds were quantified by generating dose-response curves for HMLE-shCntrl, HMLE-shEcad and HMLE-Twist under the same cell density and culture conditions described for the initial screen, using the 384-well plate based system.

HMLERshEcad cells = test: Dose response of transformed HMLERshCntrl vs HMLERshEcad cells to screen hits; type: cell-based, human; conditions: range of concentrations, FIG. 4D
Experimental: as §1

HMLEshEcad cells = test: Dose-response viability of HMLEshCntrl vs HMLEshEcad cells (validation of hits, 384-well, Cell-Titer-Glo); type: cell-based, human; conditions: FIG. 4A; for selective toxicity towards HMLEshEcad cells relative to HMLEshCntrl cells: dose response on retesting
Experimental: as §1
We pursued 8 of the 32 compounds for further study and evaluated their effects across a range of doses.
For each of these compounds, we evaluated the effect on cell viability across a series of doses for sibling cell lines either induced into or not induced into EMT.
Information about the general automated HTS protocol is available online at broad.harvard.edu/chembio/index.html. The assay was initiated by plating 40 μL of medium containing 1000 cells/well into white 384-well opaque-bottom plates (Nunc, Rochester, N.Y.) using an automated plate filler (Bio-Tek μFiller; Winsooki, Vt.) and allowing the cells to adhere for 24 hours. 100 nL of compound stock solutions in dmso was transferred from stock plates into the 384-well assay plates using an automated pin-based compound transfer robot (CyBio CyBi-Well vario; Woburn, Mass.). For most compounds the final concentration in each well was calculated to be 10 uM.
The screen was performed in duplicate. For negative controls, entire dmso-treated control plates were employed, in addition to dmso-only control wells that were incorporated into each compound assay plate. The cells were assayed for luciferase activity with the addition 20 ul of CellTiter-Glo Luminescent Cell Viability Assay solution (Promega). The luminescent signal from each plate was detected using an automated plate reader (Perkin-Elmer Envision 1; Wellesley, Mass.).
as §3

[4] = system: SUM159, MDA-MB-231 and T47D cells; test: Dose response of breast cancer cell lines differing in CSC marker expression; type: cell-based; conditions: range of doses, FIG. 5B
From the text: FIG. 5A depicts flow cytometry analysis of Sum159, MDA-MB-231 and T47D cell lines with respect to cell surface expression of CD44 and CD24. Note that while the majority of cells in Sum159 and MDA-MB-231 line contain large amounts of CSCs, T47D cells have very few such cells. FIG. 5B depicts dose response curves of Sum159, MDA-MB-231 and T47D cell treated with Salinomycin.
Cancer stem cells are resistant to a wide spectrum of treatments and chemotherapeutics. Since the compounds identified using the described screening approach preferentially target epithelial cells having undergone EMT, we wished to determine whether such compounds might also serve to target cancer stem cells.

Compound: CC[C@@H](C(=O)[C@@H](C)[C@@H](O)[C@H](C)[C@@H]1O[C@@H]([C@@H](CC)C(=O)O)CC[C@@H]1C)[C@H]1O[C@]2(C=C[C@@H](O)[C@]3(CC[C@@](C)([C@H]4CC[C@](O)(CC)[C@H](C)O4)O3)O2)[C@H](C)C[C@@H]1C [salinomycin]
- GFP-positive fraction relative to DMSO-treated controls (HMLE-Twist cells [1]; GFP-labeled HMLE + unlabeled HMLE-Twist): increase
- proportion of HMLETwist cells in co-culture with control cells (HMLE-Twist cells [1]; Salinomycin 1.25 or 5 μM, Abamectin 0.25 or 1.25 μM): dose-dependent decrease; also recorded: selection against the GFP-negative HMLE-twist cells
- expression of clinically relevant breast CSC and progenitor genes [2]: reduces the expression
- selectivity for HMLE-Twist cells vs HMLEshCntrl; dose-response curves compared with HMLEshEcad (HMLE-Twist cells [3]): is retained
- selective toxicity for HMLERshEcad (MT tumorigenic) cells (HMLERshEcad cells): selectively toxic
- selective toxicity for HMLERshEcad (MT tumorigenic) cells (HMLERshEcad cells; listed as Salinomycin): remains
- IC50 fold lower for HMLEshEcad cells vs HMLEshCntrl cells (HMLEshEcad cells; 3 day treatment, 8 concentrations): ~10 fold
- selective toxicity towards HMLEshEcad cells relative to HMLEshCntrl cells (HMLEshEcad cells): moderate to strong selectivity; also recorded: strong specificity
- selective toxicity towards HMLEshEcad cells relative to HMLEshCntrl cells (HMLEshEcad cells; listed as Salinomycin): selective toxicity
- sensitivity of CSC-enriched SUM159 and MDA-MB-231 relative to CSC-poor T47D cells [4]: positively correlated; also recorded: more sensitive
